Assay results taken from patent publication US20190262307A1, “IGURATIMOD AS AN MIF INHIBITOR” (THE FEINSTEIN INSTITUTE FOR MEDICAL RESEARCH, priority 2016, published 2019).

Key:
[1] = test system: LPS-treated human peripheral blood monocytes; assay: LPS-induced cytokine release in human monocytes enriched by negative selection; assay type: cell-based; conditions: for TNFα release: concentrations up to 50 μM
Excerpt: Preparation of Peripheral Blood Cells: Human peripheral blood was collected in sodium heparin (IRB#12-200A) or obtained as Leukopaks from New York Blood Center (New York, N.Y.). Mononuclear cells were isolated by density gradient centrifugation in Ficoll-Paque Plus (GE Healthcare; Pittsburgh, Pa.). Monocytes were either purified by two-hour adherence to Primaria culture plates (Corning Life Sciences; Corning, N.Y.) or enriched by negative magnetic selection using Monocyte Isolation Kit II (Miltenyi Biotech; Auburn, Calif.). All monocyte preps were cultured in RPMI supplemented with 10% human AB serum, 100 units/mL penicillin-streptomycin, and 2 mM L-glutamine and used within 24 hours. Macrophages were differentiated from adherence-purified monocytes by incubation with 10 ng/mL human M-CSF (Sigma) for seven days, with media replenishment performed on days 3 and 5.
Cytokine Production Assays: For LPS-induced cytokine release, negative selection-enriched monocytes (human) or mixed peripheral blood leukocytes (murine) were plated at a density of 2×10^5 cells/mL in 96-well plates. Cells were pre-treated with MIF inhibitors in 0.1% DMSO (final) for 1 hour before stimulation with LPS from E. coli R515 (Axxora; Farmingdale, N.Y.): 24 hours for human cells, 5 hours for murine cells. Cell-free supernatants were collected and stored at −80° C. for cytokine determinations by ELISA; 1:2 dilutions were used for TNFα and 1:3 dilutions for IL-8 and MCP-1.

[2] = test system: C57/BL6 and MIF−/− mice, LPS; assay: Non-lethal endotoxemia, serum TNFα; assay type: in vivo, mouse; conditions: 90 minutes post-LPS, 20 mg/kg i.p.
Excerpt: Animal Experiments: The Institutional Animal Care and Use Committee of the Feinstein Institute for Medical Research reviewed and approved all animal protocols prior to initiation of experiments. Male BALB/c mice were purchased from the Jackson Laboratory (Bar Harbor, Me.) and used for endotoxemia experiments at ages 8-10 weeks. MIF KO animals were maintained on a C57/BL6 NCr background from Charles River Laboratories (Stone Ridge, N.Y.); these animals were used alongside matched wild-type animals for endotoxemia experiments at ages 8-12 weeks.
Endotoxemia: Endotoxemia was induced by intraperitoneal injection of LPS from E. coli O111:B4 (Sigma). […] Blood was collected by cardiac puncture and allowed to clot 20 minutes at room temperature and 20 minutes at 4° C.; sera were isolated by centrifugation at 300×g for 10 minutes and stored at −20° C. for further analysis by TNFα ELISA (1:3 dilution).

[3] = test system: adherence-purified human peripheral blood monocytes; assay: Glucocorticoid synergy in vitro, adherence-purified monocytes; assay type: cell-based; conditions: LPS
Description: Glucocorticoid Synergy in vitro: The methods of Roger et al. and Kerschbaumer et al. were adapted for these experiments (17, 21). […] Cell-free supernatants were collected and analyzed immediately with a murine TNFα ELISA at a 1:10 dilution. THP-1 cells were plated at a density of 2×10^5 cells/well in a 96-well plate and used the same day with the same treatment conditions as RAW 264.7 cells, except that THP-1 cells were incubated with LPS for 16 hours prior to isolation of cell-free supernatants. Supernatants were analyzed using a human TNFα ELISA at a 1:10 dilution. Human peripheral blood mononuclear cells isolated by adherence (described above) were plated at a density of 2×10^5 cells/well in a 96-well plate and used the same day with the same treatment conditions as THP-1 cells. Supernatants were analyzed using a human TNFα ELISA at a 1:20 dilution. […] Cells were treated under the same conditions as THP-1 cells and supernatants were analyzed using a human TNFα ELISA at a 1:10 dilution.
For all above experiments, cytotoxicity was assessed using an MTT assay (1-2 hour incorporation); no significant cytotoxicity effects were observed under any treatment conditions unless otherwise noted.

[4] = early communications; cited from earlier work
neonates pups with CDH = assay: Nitrofen congenital diaphragmatic hernia (CDH) model, neonate pups; assay type: in vivo; conditions: vs Nitrofen group; for VGEF / eNOS phosphorylation: P<0.05
[5] = test system: LPS-stimulated human peripheral blood monocytes; conditions: cited from earlier work
[6] = 1 h pre-treatment, 1 ng/mL LPS 24 h

With `Oc1ccc(-c2cnc3ccccn23)cc1O` [Compound K-664.1] the MCP-1 release [1, 6] was “stronger suppressors of MCP-1 than TNFα” and the TNFα release [1, 6] was “moderate suppression”.
In the case of `CS(=O)(=O)Nc1cc2occ(NC=O)c(=O)c2cc1Oc1ccccc1` [Compound T-614, 3-formylamino-7-methylsulfonylamino-6-phenoxy-4H-1-benzopyran-4-one], the “serum TNFα, MIF−/− mice” value [2] is given as “no significant effect”, the “concentration at which TNFα is suppressed (as low as)” value [3] is given as ≤ 10 µM and the oral bioavailability [4] is given as “orally bioavailable”.
For `COC(=O)CC1CC(c2ccc(O)cc2)=NO1` (centres unmarked) [ISO-1], the TNFα release [1, 6] was “moderate suppression”, the “Arginase II” value (neonates pups with CDH) was “significantly lower” and the VGEF (neonates pups with CDH) was “significant increase”. For the same compound, the eNOS phosphorylation (neonates pups with CDH) was “significant increase”.
With `CC(C)(C)COC(=O)CC1CC(c2ccc(O)c(F)c2)=NO1` (centres unmarked) [ISO-92] the MCP-1 release [1, 6] was “stronger suppressors of MCP-1 than TNFα”, the TNFα release [1, 6] was “almost completely spared” and the “Arginase II” value (neonates pups with CDH) was “significantly lower”. The VGEF (neonates pups with CDH) was “significant increase” and the eNOS phosphorylation (neonates pups with CDH) was “significant increase”.
For `O=C(O/N=C/c1ccc(O)cc1)C1CCCCC1` [OXIM-11], the TNFα release [1, 6] was “almost completely spared” and the “suppression of the cytokines analyzed (TNFα, MCP-1, IL-8)” value ([1]; LPS-treated monocytes) was “minimal suppression”.
With `N[C@H](Cc1cc(I)c(Oc2cc(I)c(O)c(I)c2)c(I)c1)C(=O)O` [d-T4] the IL-8 release [1, 6] was “moderate suppression” and the TNFα release [1, 6] was “almost completely spared”.
In the case of `COc1ccc2c(c1)c(CC(=O)O)c(C)n2C(=O)c1ccc(Cl)cc1` [indomethacin], the IL-1β intracellular accumulation [5] is given as “increases intracellular accumulation” and the IL-1β release [5] is given as “inhibits release”.
